The text below walks through data of patent publication US20250161312A1, “A METHOD FOR THE TREATMENT OF CHEMOTHERAPEUTIC DRUG-INDUCED NEPHROTOXICITY” (INSTITUT NATIONAL DE LA SANTÉ ET DE LA RECHERCHE MÉDICALE, priority 2022, published 2025).

One assay deals with tumor cell transcriptome. As to the kind of experiment: Whole transcriptome analysis of LLC1 tumors. In kind it is in vivo, mice. As to the method: RNA-seq libraries (n=5-6/group) were generated from 500 ng of total RNA using Illumina® TruSeq® Stranded mRNA Library Prep Kit v2. Briefly, following purification with poly-T oligo attached magnetic beads, the mRNA was fragmented using divalent cations at 94° C. for 2 min. The cleaved RNA fragments were copied into first-strand cDNA using reverse transcriptase and random primers. […] Surplus PCR primers were further removed by purification using AMPure XP beads (Beckman Coulter), and the final cDNA libraries were checked for quality and quantified using capillary electrophoresis. Sequencing was performed on the Illumina® Genome Hiseq4000 as single-end 50 base reads following Illumina's instructions. Reads were mapped onto the mm 10 assembly of Mus musculus genome using STAR v2.5.3a (72). Only uniquely aligned reads were kept for further analyses. Quantification of gene expression was performed using HTSeq-count v0.6.1p1 (73) and gene annotations from Ensembl releases 90 and 102 and “union” mode. Read counts were normalized across libraries with the method proposed by Ander et al. (74). […]

The subject of assay [1] is RPTEC/hTERT1 cells. As to the kind of experiment: Cell efflux (EFLUXX-ID) in RPTEC/hTERT1 cells. In kind it is cell-based, human. The settings on record: cisplatin-treated cells, flow cytometry, FIG. 4C. As to the method: FIG. 4. […] (A) Platinum quantification (n=12-20/group) and relative expression of influx transporters (CTR1 and OCT2) and efflux transporters (ATP7B, MATE1, MATE2 and ABCC2; n=10-12/group) in kidney. (B) Platinum quantification (n=12-20/group) and relative expression of influx transporters (CTR1) and efflux transporters (ATP7B, MATE1, and ABCC2; n=5-6/group) in tumors. […] Results are the mean±SEM (n=3 independent experiments)
The basic cell efflux function was assessed using an EFLUXX-ID Green Multidrug Resistance Assay Kit (ENZO Life Sciences). Briefly, 2.5×10^5 cells/condition were collected, washed with PBS, and incubated with the EFLUXX-ID Green Detection Reagent for 30 minutes at 37° C., and then efflux was measured immediately by flow cytometry (CytoFLEX LX, Beckman Coulter). All experiments were performed in triplicate, with the measurement of 10,000 individual cells. Data were analyzed using Kaluza Analysis Software (Beckman Coulter).
On the technique in general: In flow cytometry, cells or beads pass a laser one at a time.

Assay [2] relates to RPTEC/hTERT1 cells. The assay can be described thus: Catalase activity. In kind it is cell-based, human. Conditions: cisplatin 50 μM, KW6002 25 μM, 48 hours. As to the method: Catalase activity was assessed using the Catalase Colorimetric Activity Kit (Thermo Fisher Scientific) according to the manufacturer's instructions.
The test system of assay [3] is RPTEC/hTERT1 cells. The assay can be described thus: Comet assay in RPTEC/hTERT1 cells. The settings on record: FIG. 6A. It counts as cell-based, human. As to the method:
FIG. 6. KW6002 alleviates the cisplatin-induced nephrotoxicity associated with apoptosis, lipid metabolism, and oxidative stress. (A) Tail moment assessed by comet assay; 50 cells/condition were analyzed. (B and C) KW6002 attenuates cisplatin-induced renal lipid accumulation, assessed by Red Oil staining. […] Results are the mean±SEM (n=6-9 mice/group). (F-H) KW6002 attenuated cisplatin-induced oxidative stress in RPTEC/hTERT1 cells. (F and G) Gene expression of Nrf2 (F) and HO1 (G). […] Results are the mean±SEM (n=3 independent experiments).
Treated cells were suspended (60,000 cells/mL) in low-melt agarose (1613111, Bio-Rad) 0.5% in PBS at 42° C. The suspension was then immediately spread on a comet slide (4250-200-03, R&D Systems). Agarose was allowed to cool down for 20 minutes at 4° C. Then, cell membranes were permeabilized with a lysis solution (2.5M NaCl, 100 mM EDTA, 10 mM Tris-HCl, 1% Triton X-100 [pH 10]) at 4° C. for 1 hour. […] The images were analyzed using an ImageJ in-home macro, in which the head (the nucleus) and tail (the DNA that migrated) of the comet were delimited to get the fluorescence intensity of the head, the fluorescence intensity of the tail, and the length of the tail. The calculation of tail moments was done using the following formula: (length of the comet tail×fluorescence intensity of the tail)/total fluorescence intensity (head+tail).

In the next assay the test system is RPTEC/hTERT cells. The assay can be described thus: Cell concentrations of platinum. It counts as cell-based, human. The settings on record: cisplatin 50 μM, KW-6002 25 μM, 48 hours. As to the method:
Tissues (35 mg) and cell pellets were first mineralized with hydrochloric acid (30% Suprapur, Merck) or nitric acid (69.5%, Carlo Erba), respectively. Analysis of tissue samples was performed by Graphite Furnace Atomic Absorption Spectrometry (GF-AAS) using an Aanalyst 800 (Perkin Elmer)., while cell samples analysis was performed by Inductively Coupled Plasma Mass Spectrometry (ICP-MS) using an ICAP-Qc (Thermo Scientific). Platinum concentration was finally normalized to the accurately measured kidney mass, or to the number of cells previously assessed.

Structures are written as SMILES.

On to `CCn1c(=O)c2c(nc(/C=C/c3ccc(OC)c(OC)c3)n2C)n(CC)c1=O` [KW-6002, 8-[(E)-2-(3,4-dimethoxyphenyl)vinyl]-1,3-diethyl-7-methyl-3,7-dihydro-1H-purine-2,6-dione], for which the “selectively modulated genes that were downregulated” value in the assay on tumor cell transcriptome (among the 2497) was determined as 1016 genes. For the same compound, in the assay with tumor cell transcriptome (out of 3923), the “genes selectively modulated by cisplatin/KW-6002 co-treatment vs. vehicle” value came to 2497 genes. Further, the efflux entry with RPTEC/hTERT1 cells [1] was “strongly enhanced”. Besides, the “cisplatin-induced decrease in catalase activity” value in the assay with RPTEC/hTERT1 cells [2] was “normalized”. The “cisplatin-induced DNA damage (tail moment)” value with RPTEC/hTERT1 cells [3] is on record as “inhibiting”. Also, in the assay on RPTEC/hTERT cells, the “accumulation of cisplatin (platinum) in cells” value is “limits the accumulation of cisplatin”.
